Where two headings read alike, the source gives them in different places. Starred links: 1 amine or outer side, 2 acyl side, 3 side chain; linkers in the order of their positions; H or OH if unused. Non-standard residues stand in square brackets, D forms with d. Residues, ends and D or L forms follow the SMILES beside them. *: point of attachment. X2 = CC(C)CCC[C@@H](C)[C@H]1CC[C@H]2[C@@H]3CC=C4C[C@@H](OC(=O)CCOCCOCCOCCOCCNC(=O)C*)CC[C@]4(C)[C@H]3CC[C@]12C; X1 = O=C([C@H]1CNC[C@@H]1N[*:1])[*:2]; β3hE = N[C@@H](CCC(=O)O)CC(=O)O; β3hQ = NC(=O)CC[C@H](N)CC(=O)O; β3hD = NC(CC(=O)O)CC(=O)O
Tests used:
SARS-CoV-2 S = target: T1, SARS-CoV-2 S (Severe acute respiratory syndrome coronavirus 2, UniProt P0DTC2); assay: β-Gal complementation-based cell-cell fusion assay (S-protein-mediated fusion)
T1 construct: expressed in transfected cells

[1] = Solubility of the peptides; format: physicochemical
[2] = IC50, inhibition of S-mediated fusion

## Ac-[β3hD]IS[β3hQ]INASVVNIEYEIKKLEEVAKKLEESLI[β3hD]L[β3hQ]ELGSGSGC(X2)-NH2 [D1 Q4 D32 Q34]
SARS-CoV-2 S; [2]
  IC50: ~10 nM

## Ac-[β3hD]IS[β3hQ]INASVVNIEYEIKKLEEVAKKLEESLI[β3hD]LQ[β3hE]LGSGSGC(X2)-NH2 [D1 Q4 D32 E35]
SARS-CoV-2 S; [2]
  IC50: ~50 nM

## Ac-DISQINASVVNIEYEI[X1]KLE[β3hE]VA[X1]KLE[β3hE]SLIDLQELGSGSGC(X2)-NH2 [Bf APC/B3E]
SARS-CoV-2 S; […], cell-cell fusion assay, peptides with poly(ethylene glycol)-cholesterol tail, read-out: IC50, inhibition of S-mediated fusion
  IC50: ~50 nM

## CC[C@H](C)[C@H](NC(=O)[C@H](C)NC(=O)[C@H](CCC(=O)O)NC(=O)[C@H](CCC(=O)O)NC(=O)[C@H](CC(C)C)NC(=O)[C@H](CCCCN)NC(=O)[C@H](CCCCN)NC(=O)[C@H](CCSC)NC(=O)[C@H](CCC(=O)O)NC(=O)[C@H](Cc1ccc(O)cc1)NC(=O)[C@H](CCC(=O)O)NC(=O)[C@H](CC(C)C)NC(=O)[C@H](CC(=O)O)NC(=O)[C@H](CC(C)C)NC(=O)[C@H](Cc1ccccc1)NC(=O)[C@@H](NC(=O)[C@@H](NC(=O)[C@H](CC(N)=O)NC(=O)[C@@H](NC(=O)[C@H](CCC(N)=O)NC(=O)[C@H](CC(=O)O)NC(=O)[C@H](CC(C)C)NC(=O)[C@@H](N)CO)[C@@H](C)CC)C(C)C)[C@@H](C)O)C(=O)N[C@@H](CCCCN)C(=O)N[C@@H](CCCCN)C(=O)N[C@@H](CC(C)C)C(=O)N[C@@H](CCC(=O)O)C(=O)N[C@@H](CCC(=O)O)C(=O)N[C@@H](CO)C(=O)N[C@@H](Cc1ccc(O)cc1)C(=O)N[C@H](C(=O)N[C@@H](CC(=O)O)C(=O)N[C@@H](CC(C)C)C(=O)N[C@@H](CCCCN)C(=O)N[C@@H](CCC(=O)O)C(=O)N[C@@H](CC(C)C)C(N)=O)[C@@H](C)CC [EK1]
[1]
  solubility (in words): improved solubility

## CC[C@H](C)[C@H](NC(=O)[C@H](CCC(N)=O)NC(=O)[C@H](CO)NC(=O)[C@@H](NC(=O)[C@@H](N)CC(=O)O)[C@@H](C)CC)C(=O)N[C@@H](CC(N)=O)C(=O)N[C@@H](C)C(=O)N[C@@H](CO)C(=O)N[C@H](C(=O)N[C@H](C(=O)N[C@@H](CC(N)=O)C(=O)N[C@H](C(=O)N[C@@H](CCC(=O)O)C(=O)N[C@@H](Cc1ccc(O)cc1)C(=O)N[C@@H](CCC(=O)O)C(=O)N[C@H](C(=O)N[C@@H](CCCCN)C(=O)N[C@@H](CCCCN)C(=O)N[C@@H](CC(C)C)C(=O)N[C@@H](CCC(=O)O)C(=O)N[C@@H](CCC(=O)O)C(=O)N[C@H](C(=O)N[C@@H](C)C(=O)N[C@@H](CCCCN)C(=O)N[C@@H](CCCCN)C(=O)N[C@@H](CC(C)C)C(=O)N[C@@H](CCC(=O)O)C(=O)N[C@@H](CCC(=O)O)C(=O)N[C@@H](CO)C(=O)N[C@@H](CC(C)C)C(=O)N[C@H](C(=O)N[C@@H](CC(=O)O)C(=O)N[C@@H](CC(C)C)C(=O)N[C@@H](CCC(N)=O)C(=O)N[C@@H](CCC(=O)O)C(=O)N[C@@H](CC(C)C)C(N)=O)[C@@H](C)CC)C(C)C)[C@@H](C)CC)[C@@H](C)CC)C(C)C)C(C)C [Peptide 1] (H-DISQINASVVNIEYEIKKLEEVAKKLEESLIDLQEL-NH2; N-terminus and C-terminus assumed)
[1]
  solubility (in words): improved solubility
